Laboratory results taken from PubChem BioAssay AID1963841 (Molecular Pharmacology Branch, DTP, NCI, 2024).

System: 439559-082-T-J2-PDC spheroid viability
Experiment: Anticancer human tumor 439559-082-T-J2-PDC patient-derived colon adenocarcinoma cell line growth inhibition [POLQ]
Details: spheroids with HUVEC and MSC; for IC50: curve of first compound; for viability, T/C: stronger effect = lower value
Outline: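 Three-cell-type spheroids modelling solid tumor plus stroma served as the readout system; POL inhibitors were tested individually and in combination, concentration ranges set by clinical Cmax where known.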

[1] = second compound 0.0316 µM, first compound 0.00316 µM
[2] = second compound 0.0316 µM, first compound 0.01 µM
[3] = second compound 0.0316 µM, first compound 0.0316 µM
[4] = second compound 0.0316 µM, first compound 0.1 µM
[5] = second compound 0.1 µM, first compound 0.00316 µM
[6] = second compound 0.1 µM, first compound 0.01 µM
[7] = second compound 0.1 µM, first compound 0.0316 µM
[8] = second compound 0.1 µM, first compound 0.1 µM
[9] = second compound 0.316 µM, first compound 0.00316 µM
[10] = second compound 0.316 µM, first compound 0.01 µM
[11] = second compound 0.316 µM, first compound 0.0316 µM
[12] = second compound 0.316 µM, first compound 0.1 µM
[13] = second compound 1 µM, first compound 0.00316 µM
[14] = second compound 1 µM, first compound 0.01 µM
[15] = second compound 1 µM, first compound 0.0316 µM
[16] = second compound 1 µM, first compound 0.1 µM
[17] = second compound 3.16 µM, first compound 0.00316 µM
[18] = second compound 3.16 µM, first compound 0.01 µM
[19] = second compound 3.16 µM, first compound 0.0316 µM
[20] = second compound 3.16 µM, first compound 0.1 µM
[21] = second compound 10 µM, first compound 0.00316 µM
[22] = second compound 10 µM, first compound 0.01 µM
[23] = second compound 10 µM, first compound 0.0316 µM
[24] = second compound 10 µM, first compound 0.1 µM
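Also: spheroids exposed to compounds for seven days before readout.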
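For viability, T/C in this document: 100% = DMSO vehicle control viability.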

C=CCn1c(=O)c2cnc(Nc3ccc(N4CCN(C)CC4)cc3)nc2n1-c1cccc(C(C)(C)O)n1 + COC1C(OC(N)=O)C(O)C(Oc2ccc3c(O)c(NC(=O)c4ccc(O)c(CC=C(C)C)c4)c(=O)oc3c2C)OC1(C)C
IC50 (second compound 0.0316 µM): > 1000 nM
IC50 (second compound 0.1 µM): > 1000 nM
IC50 (second compound 0.316 µM): > 1000 nM
IC50 (second compound 1 µM): > 1000 nM
IC50 (second compound 3.16 µM): > 1000 nM
IC50 (second compound 10 µM): > 1000 nM
viability, T/C [1]: 98.7%
viability, T/C [2]: 104%
viability, T/C [3]: 102%
viability, T/C [4]: 101%
viability, T/C (second compound 0.0316 µM, first compound 0.316 µM): 96.1%
viability, T/C (second compound 0.0316 µM, first compound 1 µM): 80.7%
viability, T/C [5]: 112%
viability, T/C [6]: 106%
viability, T/C [7]: 102%
viability, T/C [8]: 102%
viability, T/C (second compound 0.1 µM, first compound 0.316 µM): 91%
viability, T/C (second compound 0.1 µM, first compound 1 µM): 79.1%
viability, T/C [9]: 102%
viability, T/C [10]: 102%
viability, T/C [11]: 105%
viability, T/C [12]: 101%
viability, T/C (second compound 0.316 µM, first compound 0.316 µM): 94.5%
viability, T/C (second compound 0.316 µM, first compound 1 µM): 86.3%
viability, T/C [13]: 106%
viability, T/C [14]: 104%
viability, T/C [15]: 100%
viability, T/C [16]: 97.3%
viability, T/C (second compound 1 µM, first compound 0.316 µM): 94.8%
viability, T/C (second compound 1 µM, first compound 1 µM): 76.3%
viability, T/C [17]: 101%
viability, T/C [18]: 101%
viability, T/C [19]: 97.2%
viability, T/C [20]: 94.6%
viability, T/C (second compound 3.16 µM, first compound 0.316 µM): 102%
viability, T/C (second compound 3.16 µM, first compound 1 µM): 85.6%
viability, T/C [21]: 100%
viability, T/C [22]: 93.8%
viability, T/C [23]: 97.9%
viability, T/C [24]: 109%
viability, T/C (second compound 10 µM, first compound 0.316 µM): 94.8%
viability, T/C (second compound 10 µM, first compound 1 µM): 72.2%

CC[C@@]1(O)C(=O)OCc2c1cc1n(c2=O)Cc2cc3c(CN(C)C)c(O)ccc3nc2-1 + COC1C(OC(N)=O)C(O)C(Oc2ccc3c(O)c(NC(=O)c4ccc(O)c(CC=C(C)C)c4)c(=O)oc3c2C)OC1(C)C
IC50 (second compound 0.0316 µM): > 100 nM
IC50 (second compound 0.1 µM): > 100 nM
IC50 (second compound 0.316 µM): > 100 nM
IC50 (second compound 1 µM): > 100 nM
IC50 (second compound 3.16 µM): > 100 nM
IC50 (second compound 10 µM): > 100 nM
viability, T/C (second compound 0.0316 µM, first compound 0.000316 µM): 99%
viability, T/C (second compound 0.0316 µM, first compound 0.001 µM): 100%
viability, T/C [1]: 92.3%
viability, T/C [2]: 96.1%
viability, T/C [3]: 89.5%
viability, T/C [4]: 74.2%
viability, T/C (second compound 0.1 µM, first compound 0.000316 µM): 99%
viability, T/C (second compound 0.1 µM, first compound 0.001 µM): 98.5%
viability, T/C [5]: 101%
viability, T/C [6]: 101%
viability, T/C [7]: 87.7%
viability, T/C [8]: 79.2%
viability, T/C (second compound 0.316 µM, first compound 0.000316 µM): 97.3%
viability, T/C (second compound 0.316 µM, first compound 0.001 µM): 99.5%
viability, T/C [9]: 105%
viability, T/C [10]: 93.7%
viability, T/C [11]: 92.3%
viability, T/C [12]: 79.1%
viability, T/C (second compound 1 µM, first compound 0.000316 µM): 105%
viability, T/C (second compound 1 µM, first compound 0.001 µM): 115%
viability, T/C [13]: 104%
viability, T/C [14]: 97.5%
viability, T/C [15]: 94.2%
viability, T/C [16]: 82.5%
viability, T/C (second compound 3.16 µM, first compound 0.000316 µM): 100%
viability, T/C (second compound 3.16 µM, first compound 0.001 µM): 99.8%
viability, T/C [17]: 105%
viability, T/C [18]: 92.6%
viability, T/C [19]: 94.4%
viability, T/C [20]: 74.7%
viability, T/C (second compound 10 µM, first compound 0.000316 µM): 105%
viability, T/C (second compound 10 µM, first compound 0.001 µM): 101%
viability, T/C [21]: 94.5%
viability, T/C [22]: 100%
viability, T/C [23]: 91.3%
viability, T/C [24]: 77.6%
